This assay concerns the target T1, G9a (Homo sapiens, UniProt Q96KQ7).
T1 sequence (Q96KQ7 1-1210): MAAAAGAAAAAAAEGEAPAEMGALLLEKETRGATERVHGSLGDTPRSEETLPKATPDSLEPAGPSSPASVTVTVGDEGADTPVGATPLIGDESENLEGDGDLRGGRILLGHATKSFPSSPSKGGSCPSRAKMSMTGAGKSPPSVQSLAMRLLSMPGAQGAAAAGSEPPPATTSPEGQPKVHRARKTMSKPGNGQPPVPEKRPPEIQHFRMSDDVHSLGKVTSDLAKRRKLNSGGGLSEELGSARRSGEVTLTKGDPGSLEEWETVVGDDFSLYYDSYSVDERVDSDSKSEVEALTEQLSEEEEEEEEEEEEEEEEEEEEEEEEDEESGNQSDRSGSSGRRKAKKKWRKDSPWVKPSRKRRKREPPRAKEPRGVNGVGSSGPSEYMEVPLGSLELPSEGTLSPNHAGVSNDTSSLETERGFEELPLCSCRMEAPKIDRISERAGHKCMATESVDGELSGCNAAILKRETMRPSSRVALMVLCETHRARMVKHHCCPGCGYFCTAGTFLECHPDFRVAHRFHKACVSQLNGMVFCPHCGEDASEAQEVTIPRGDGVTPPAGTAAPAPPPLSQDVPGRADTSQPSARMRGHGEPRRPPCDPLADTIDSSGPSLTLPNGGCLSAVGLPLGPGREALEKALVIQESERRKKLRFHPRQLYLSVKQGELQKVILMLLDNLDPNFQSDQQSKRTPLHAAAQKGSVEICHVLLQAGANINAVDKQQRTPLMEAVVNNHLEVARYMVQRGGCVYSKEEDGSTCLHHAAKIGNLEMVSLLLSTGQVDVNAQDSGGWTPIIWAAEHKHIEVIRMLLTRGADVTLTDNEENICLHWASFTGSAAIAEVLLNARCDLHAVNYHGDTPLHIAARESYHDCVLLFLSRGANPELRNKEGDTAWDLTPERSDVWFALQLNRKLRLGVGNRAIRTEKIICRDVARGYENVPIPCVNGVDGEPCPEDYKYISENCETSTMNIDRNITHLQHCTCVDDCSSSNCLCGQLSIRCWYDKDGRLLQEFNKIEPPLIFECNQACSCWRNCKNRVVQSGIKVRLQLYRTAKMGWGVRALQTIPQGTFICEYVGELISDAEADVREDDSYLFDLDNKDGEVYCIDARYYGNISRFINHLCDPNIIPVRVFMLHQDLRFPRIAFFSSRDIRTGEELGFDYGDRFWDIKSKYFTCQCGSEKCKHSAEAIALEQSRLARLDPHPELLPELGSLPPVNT
Nature of the assay: G9a AlphaLISA enzymatic activity assay. In kind it is biochemical. The settings on record: negative log of IC50 in molar, 0.15 nM G9a, 15 uM S-adenosyl-methionine, 100 nM biotinylated histone 3 peptide (1-21). The source says:
The G9a AlphaLISA assay was used to detect the methyl modifications of a biotinylated histone H3 peptide by the compounds. These modifications are done by the histone methyl transferase activity of the G9a enzyme. The assay consists of reading a chemiluminescent signal at 615 nm; this signal is generated by a laser excitation at 680 nm that transfers a reactive singlet oxygen between the donor beads and acceptor beads. Donor beads are streptavidin conjugated and bind to the biotin on the peptide. Acceptor beads are conjugated with an antibody that recognizes the specific G9a methyl mark on the peptide. If there is a methyl mark on the peptide, the acceptor beads will bind to the peptide. Upon binding, the acceptor beads will be in close proximity (<200 nm) of the donor beads and when the donor beads are excited, the transfer of the oxygen can occur and a strong signal will be generated. If there is no methyl mark, the interaction between beads will not occur and signal will be at background levels.
For the assay, the following buffer was used to set up reactions: 50 mM Tris-HCl pH9, 50 mM NaCl, 0.01% Tween-20 and 1 mM DTT (added fresh prior to starting the reactions). […] The reaction is incubated at rt for 1 hour and subsequently quenched by the addition of the acceptor beads (anti-H3k9me2 AlphaLISA acceptor beads, PerkinElmer #AL117) at a final concentration of 20 ug/mL. The acceptor beads are incubated for 1 hour. After 1 hour, the donor beads are added at a final concentration of 20 ug/mL (Alpha Streptavidin donor beads, PerkinElmer #6760002). Donor beads are incubated for 0.5 hours. Both donor and acceptor beads are resuspended in AlphaLISA 5X Epigenetics Buffer 1 Kit (PerkinElmer #AL008) prior to addition to the reaction. All manipulations and incubations with the donor and acceptor beads are done in subdued light. Signal is detected in an EnVision plate reader in Alpha mode. See ACS Med Chem Lett. 2014; 5(2):205-9.
Percent inhibition was calculated for each compound dilution and the concentration that produced 50% inhibition was calculated. This value is presented as the pIC50, which is the negative log of the IC50 value in molar.
(Bead proximity is the source of the signal in Alpha formats.)
`CCNc1c2c(nc3cc(OCCCN4CCCC4)c(OC(F)(F)F)cc13)CCC2` [Example 49, N-ethyl-6-[3-(pyrrolidin-1-yl)propoxy]-7-(trifluoromethoxy)-1H,2H,3H-cyclopenta[b]quinolin-9-amine] showed an IC50 of 646 nM.
To `CCN(CCCOc1cc2nc3c(c(NC)c2cc1OC)CCC3)CCOC` [Example 58, 6-{3-[ethyl(2-methoxyethyl)amino]propoxy}-7-methoxy-N-methyl-1H,2H,3H-cyclopenta[b]quinolin-9-amine] belongs 2750 nM; to `COc1cc2c(NC3CCN(C(C)C)CC3)c3c(nc2cc1OCCCN1CC[C@@H](OC)C1)CCC3` [Example 76, N-(7-methoxy-6-{3-[(3R)-3-methoxypyrrolidin-1-yl]propoxy}-1H,2H,3H-cyclopenta[b]quinolin-9-yl)-1-(propan-2-yl)piperidin-4-amine], 6.46 nM.
Under `CNc1c2c(nc3cc(OCCCN4CCCC4)c(OC(F)F)cc13)CCC2` [Example 34, 7-(difluoromethoxy)-N-methyl-6-[3-(pyrrolidin-1-yl)propoxy]-1H,2H,3H-cyclopenta[b]quinolin-9-amine] stands 28.8 nM; under `CNc1c2c(nc3cc(OCCCN(C)CCF)c(OC)cc13)CCC2` [Example 55, 6-{3-[(2-fluoroethyl)(methyl)amino]propoxy}-7-methoxy-N-methyl-1H,2H,3H-cyclopenta[b]quinolin-9-amine], 813 nM.
The compound `COc1cc2c(NCC3CC3)c3c(nc2cc1OC[C@H](C)CN1CCCC1)CCC3` [Example 44, N-(cyclopropylmethyl)-7-methoxy-6-[(2R)-2-[(pyrrolidin-1-yl)methyl]propoxy]-1H,2H,3H-cyclopenta[b]quinolin-9-amine] gave a 50% inhibitory concentration (IC50) of 166 nM.
Under `COc1cc2c(NCC3CNC3)c3c(nc2cc1OCCCN1CC2CC(C2)C1)CCC3` [Example 74, 6-(3-{3-azabicyclo[3.1.1]heptan-3-yl}propoxy)-N-[(azetidin-3-yl)methyl]-7-methoxy-1H,2H,3H-cyclopenta[b]quinolin-9-amine] stands 8.32 nM.
To `CCNc1c2c(nc3cc(OCCCN4CCCC4)c(OC)cc13)CCC2(C)C` [Example 21, N-ethyl-7-methoxy-1,1-dimethyl-6-[3-(pyrrolidin-1-yl)propoxy]-1H,2H,3H-cyclopenta[b]quinolin-9-amine] belongs 83.2 nM.
To `CC(C)Nc1c2c(nc3cc(OCCCN4CCCC4)c(OC(F)F)cc13)CCC2` [Example 35, 7-(difluoromethoxy)-N-(propan-2-yl)-6-[3-(pyrrolidin-1-yl)propoxy]-1H,2H,3H-cyclopenta[b]quinolin-9-amine] belongs 63.1 nM.
The compound `COc1cc2c(NC[C@@H]3CCCO3)c3c(nc2cc1OCCCN1CCCC1)CCC3` [Example 25, 7-methoxy-N-{[(2S)-oxolan-2-yl]methyl}-6-[3-(pyrrolidin-1-yl)propoxy]-1H,2H,3H-cyclopenta[b]quinolin-9-amine] showed an IC50 of 15.5 nM.
To `COc1cc2c(NC[C@H]3CCOC3)c3c(nc2cc1OCCCN1CCCC1)CCC3` [Example 28, 7-methoxy-N-{[(3R)-oxolan-3-yl]methyl}-6-[3-(pyrrolidin-1-yl)propoxy]-1H,2H,3H-cyclopenta[b]quinolin-9-amine] belongs 10 nM.
To `CCOCCNc1c2c(nc3cc(COCCN4CCCC4)c(OC)cc13)CCC2` [Example 41, N-(2-ethoxyethyl)-7-methoxy-6-{[2-(pyrrolidin-1-yl)ethoxy]methyl}-1H,2H,3H-cyclopenta[b]quinolin-9-amine] belongs 33.9 nM; to `CCCOCCNc1c2c(nc3cc(OCCCN4CCCC4)c(OC)cc13)CCC2` [Example 16, 7-methoxy-N-(2-propoxyethyl)-6-[3-(pyrrolidin-1-yl)propoxy]-1H,2H,3H-cyclopenta[b]quinolin-9-amine], 37.2 nM; to `COc1cc2c(NC3CCN(C(C)C)CC3)c3c(nc2cc1OCCCN(C)C)CCC3` [Example 70, N-{6-[3-(dimethylamino)propoxy]-7-methoxy-1H,2H,3H-cyclopenta[b]quinolin-9-yl}-1-(propan-2-yl)piperidin-4-amine], 4.9 nM.
`CCNc1c2c(nc3cc(OCCCN4CCCC4)c(OC)cc13)CC(C)(C)C2` [Example 6, N-ethyl-7-methoxy-2,2-dimethyl-6-[3-(pyrrolidin-1-yl)propoxy]-1H,2H,3H-cyclopenta[b]quinolin-9-amine] had a 50% inhibitory concentration (IC50) of 38 nM.
As for `COc1cc2c(NC[C@@H]3COCCO3)c3c(nc2cc1OCCCN1CCCC1)CCC3` [Example 26, N-{[(2R)-1,4-dioxan-2-yl]methyl}-7-methoxy-6-[3-(pyrrolidin-1-yl)propoxy]-1H,2H,3H-cyclopenta[b]quinolin-9-amine], the concentration for half-maximal inhibition (IC50) was 11.2 nM.
For `CCN(CC)CCOCCOc1cc2nc3c(c(NC(C)C)c2cc1OC)CCC3` [Example 66, 6-{2-[2-(diethylamino)ethoxy]ethoxy}-7-methoxy-N-(propan-2-yl)-1H,2H,3H-cyclopenta[b]quinolin-9-amine], the IC50 was 437 nM.
`CCNc1c2c(nc3cc(OCCCN4CCCC4)c(OC(F)F)cc13)CCC2` [Example 30, 7-(difluoromethoxy)-N-ethyl-6-[3-(pyrrolidin-1-yl)propoxy]-1H,2H,3H-cyclopenta[b]quinolin-9-amine] gave an IC50 of 35.5 nM.
Under `CNc1c2c(nc3cc(OCCCN4CCCC4)c(OC)cc13)CCC2(C)C` [Example 20, 7-methoxy-N,1,1-trimethyl-6-[3-(pyrrolidin-1-yl)propoxy]-1H,2H,3H-cyclopenta[b]quinolin-9-amine] stands 72.4 nM; under `COc1cc2c(NC[C@H]3COCCO3)c3c(nc2cc1OCCCN1CCCC1)CCC3` [Example 27, N-{[(2S)-1,4-dioxan-2-yl]methyl}-7-methoxy-6-[3-(pyrrolidin-1-yl)propoxy]-1H,2H,3H-cyclopenta[b]quinolin-9-amine], 12.6 nM; under `COc1cc2c(NCC3CC3)c3c(nc2cc1OCCCNS(N)(=O)=O)CCC3` [Example 72, N-[3-({9-[(cyclopropylmethyl)amino]-7-methoxy-1H,2H,3H-cyclopenta[b]quinolin-6-yl}oxy)propyl]aminosulfonamide], 1950 nM.
Under `COC[C@H](C)Nc1c2c(nc3cc(OCCCN4CCCC4)c(OC)cc13)CCC2` [Example 4] stands 6.17 nM; under `COCCNc1c2c(nc3cc(OCCCN4CCCC4)c(OC)cc13)C1CCCC2C1` (stereo not drawn) [Example 43, 7-methoxy-N-(2-methoxyethyl)-6-[3-(pyrrolidin-1-yl)propoxy]-3-azatetracyclo[10.3.1.0^{2,11}.0^{4,9}]hexadeca-2,4,6,8,10-pentaen-10-amine], 39.8 nM; under `COc1cc2c(NCC3CC3)c3c(nc2cc1OCC1(CN2CCCC2)COC1)CCC3` [Example 68, N-(cyclopropylmethyl)-7-methoxy-6-({3-[(pyrrolidin-1-yl)methyl]oxetan-3-yl}methoxy)-1H,2H,3H-cyclopenta[b]quinolin-9-amine], 1550 nM.

As usually defined, the IC50 is the concentration that gives 50% inhibition.

For the origin of these results see patent publication US11584734B2, “Tricyclic compounds as histone methyltransferase inhibitors” (GLOBAL BLOOD THERAPEUTICS, INC., priority 2017, dated 2023).
